This is an account of results in patent US20250282820A1, “PEPTIDE COMPLEX HAVING TRKB BINDING ACTIVITY” (PEPTIDREAM INC, priority 2022, published 2025).

The structures appear in SMILES notation. *1 amine or outer side, *2 acyl side, *3 side chain or, on linkers, in order; H or OH if unused. Where a SMILES comes first, the peptide text is derived from it. Bridges are numbered along the chain shown (N, C = ends). Roman numbers before positions name the chains, in order. [ ]: non-standard residue; d: D form. CO(CH2CH2O)13CH2CH2CO = O=C(CCOCCOCCOCCOCCOCCOCCOCCOCCOCCOCCOCCOCCOCCC(=O)[*:2])[*:1]; 3Pal = N[C@@H](Cc1cccnc1)C(=O)O

In test [1] the target is T1, TrkB (CellSensor TrkB-NFAT-bla CHO-K1 Cell) (Homo sapiens, UniProt Q16620).
T1 construct: host or cells: CHO-K1 (CellSensor TrkB-NFAT-bla CHO-K1)
T1 sequence (Q16620 32-822): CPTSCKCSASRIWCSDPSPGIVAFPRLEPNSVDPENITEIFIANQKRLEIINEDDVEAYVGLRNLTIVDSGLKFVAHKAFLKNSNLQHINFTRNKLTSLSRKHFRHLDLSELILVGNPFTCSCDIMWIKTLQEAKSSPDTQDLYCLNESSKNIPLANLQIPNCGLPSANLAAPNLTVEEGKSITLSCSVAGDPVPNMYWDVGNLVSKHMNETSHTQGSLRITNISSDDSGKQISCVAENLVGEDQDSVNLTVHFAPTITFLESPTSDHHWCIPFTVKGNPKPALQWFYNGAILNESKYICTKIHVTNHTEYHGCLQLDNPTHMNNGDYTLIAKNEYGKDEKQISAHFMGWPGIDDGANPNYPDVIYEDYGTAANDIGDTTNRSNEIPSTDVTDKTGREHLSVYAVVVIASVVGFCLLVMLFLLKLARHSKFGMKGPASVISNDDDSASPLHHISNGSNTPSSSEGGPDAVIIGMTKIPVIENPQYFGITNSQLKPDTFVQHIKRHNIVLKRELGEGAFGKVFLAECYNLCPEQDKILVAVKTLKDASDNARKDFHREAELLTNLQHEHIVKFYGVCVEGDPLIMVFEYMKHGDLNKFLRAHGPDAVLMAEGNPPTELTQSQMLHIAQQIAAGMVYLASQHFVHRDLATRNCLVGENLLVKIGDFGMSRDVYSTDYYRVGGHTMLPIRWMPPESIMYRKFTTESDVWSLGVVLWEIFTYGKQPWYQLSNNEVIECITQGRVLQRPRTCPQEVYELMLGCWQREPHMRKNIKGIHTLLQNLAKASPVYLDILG
Nature of the test: NFAT transcriptional reporter assay for TrkB agonist activity. Format: cell-based. Conditions: class = peptide concentration giving 50% or more activity; BDNF maximum signal = 100%, no stimulation = 0%; 5 hours culture. The method in brief: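 CHO-K1 TrkB-NFAT-bla cells, 12,500 per well, treated overnight-seeded with peptide or BDNF for 5 h, then CCF4-AM substrate 2 h in the dark; 460/535 nm emission ratio. Activity scaled to maximal BDNF signal (100%) and unstimulated (0%); grades A/B/C mean ≥50% activity at 1, 10 or 100 nM.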

A further test addresses TrkB (Homo sapiens, UniProt Q16620). The experiment in a line: PathHunter eXpress TrkB Functional Assay (phosphorylation of TrkB). The class given is cell-based. The following applies: maximum signal induced by BDNF = 100%; stimulation for 3 hours. The method in brief: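 PathHunter TrkB cells, cultured 48 h, were stimulated 3 h with peptide or BDNF, then detection reagent added for 60 min at room temperature; luminescence read. Activity (%) scaled from unstimulated (0%) to maximal BDNF signal (100%); peptides tested over 0.006104-100 nM, 0.032-100 nM or 0.01-10 nM ranges.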

Test [2] concerns the target T2, Recombinant Human TrkA Fc Chimera Protein (Homo sapiens, UniProt P04629).
T2 construct: purchased R&D Systems
The experiment in a line: Surface plasmon resonance (SPR), Biacore T200, single cycle kinetics. Format: binding. The following applies: FIG. 4. As for the experimental part: (§1) A CM3 sensor chip (Cytiva) was inserted into a Biacore T200 (Cytiva). Three priming runs were performed using running buffer: HBS-EP+ (Cytiva). The system was then equilibrated at a flow rate of 30 μL/min. After mixing in 50 μL each of a 60 mM EDC solution (Cytiva) and 650 mM NHS solution (Cytiva), the reaction was performed at a flow rate of 10 μL/min for 420 seconds. Then, 135 μL of a 30 ng/μL anti-human IgG (Fc) antibody (Cytiva) solution was prepared by dilution with a 10 mM acetic acid solution (pH 5.0), and the anti-human IgG (Fc) antibody was immobilized on the CM3 sensor chip by reacting it at a flow rate of 10 μL/min for 360 seconds. After immobilization, capping was performed by reacting it with a 1.0M ethanolamine solution (Cytiva) at a flow rate of 10 μL/min for 420 seconds. Each 200 nM Recombinant Human TrkA Fc Chimera Protein, Recombinant Human TrkB Fc Chimera Protein, Recombinant Human TrkC Fc Chimera Protein (R&D Systems) solution was reacted with the immobilized antibody at a flow rate of 10 μL/min for 60 seconds. A liquid prepared by dissolving each peptide at 10 mM in DMSO solution was diluted with running buffer to prepare a peptide-dissolved solution at a final concentration of 10 μM. Subsequently, 50 nM, 25 nM, 12.5 nM, 5 nM, and 2.5 nM peptide solutions were prepared. Using the samples described above, the kinetics of peptide against TrkA, TrkB, and TrkC were obtained by SPR measurements. After reacting a peptide with TrkA, TrkB, and TrkC, regeneration was performed using a reaction with a 3M MgCl solution at 10 μL/min for 180 seconds.
(§2) The kinetic evaluation model was Single Cycle Kinetics, and curve fitting was performed using Biacore T200 Evaluation Software Version 3.0 (Cytiva). The binding of peptides to TrkA, TrkB, and TrkC was evaluated by performing least-squares curve fitting on the obtained sensorgrams and calculating their Kd values (dissociation constants).
For orientation: In SPR one partner is held on a chip, and binding of the other changes the refractive index at the surface.

The target of test [3] is T3, Recombinant Human TrkB Fc Chimera Protein (Homo sapiens, UniProt Q16620).
T3 construct: purchased R&D Systems
The description is as above. The class given is binding. Conditions: for Kd: calculated by employing the lower theoretical limit of 0.00001 (1/s) for koff, read-out: Kd (dissociation constant) of binding to TrkB. How it is done: as §1, §2

The target in test [4] is T4, Recombinant Human TrkC Fc Chimera Protein (Homo sapiens, UniProt Q16288).
T4 construct: purchased R&D Systems
T4 sequence (Q16288 with tags, fused parts or gaps limits assumed): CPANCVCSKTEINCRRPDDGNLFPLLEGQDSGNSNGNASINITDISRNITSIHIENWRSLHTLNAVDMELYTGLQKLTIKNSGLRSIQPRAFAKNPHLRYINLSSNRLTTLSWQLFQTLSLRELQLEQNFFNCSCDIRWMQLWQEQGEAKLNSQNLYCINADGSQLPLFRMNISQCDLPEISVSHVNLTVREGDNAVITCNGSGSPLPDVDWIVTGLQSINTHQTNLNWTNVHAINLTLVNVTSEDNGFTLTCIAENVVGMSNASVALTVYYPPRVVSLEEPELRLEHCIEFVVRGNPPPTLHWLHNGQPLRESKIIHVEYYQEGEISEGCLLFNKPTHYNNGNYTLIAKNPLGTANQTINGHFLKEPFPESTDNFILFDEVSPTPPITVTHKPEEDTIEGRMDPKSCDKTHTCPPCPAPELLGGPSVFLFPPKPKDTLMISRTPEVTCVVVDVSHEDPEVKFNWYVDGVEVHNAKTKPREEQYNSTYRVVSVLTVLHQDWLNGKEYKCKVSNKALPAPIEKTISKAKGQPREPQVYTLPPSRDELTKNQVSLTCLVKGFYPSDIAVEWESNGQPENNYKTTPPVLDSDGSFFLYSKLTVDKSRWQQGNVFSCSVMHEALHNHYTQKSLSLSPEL
The description is as above. Format: binding. Conditions: FIG. 4. How it is done:
as §1, §2

T2 sequence (P04629 with tags, fused parts or gaps limits assumed): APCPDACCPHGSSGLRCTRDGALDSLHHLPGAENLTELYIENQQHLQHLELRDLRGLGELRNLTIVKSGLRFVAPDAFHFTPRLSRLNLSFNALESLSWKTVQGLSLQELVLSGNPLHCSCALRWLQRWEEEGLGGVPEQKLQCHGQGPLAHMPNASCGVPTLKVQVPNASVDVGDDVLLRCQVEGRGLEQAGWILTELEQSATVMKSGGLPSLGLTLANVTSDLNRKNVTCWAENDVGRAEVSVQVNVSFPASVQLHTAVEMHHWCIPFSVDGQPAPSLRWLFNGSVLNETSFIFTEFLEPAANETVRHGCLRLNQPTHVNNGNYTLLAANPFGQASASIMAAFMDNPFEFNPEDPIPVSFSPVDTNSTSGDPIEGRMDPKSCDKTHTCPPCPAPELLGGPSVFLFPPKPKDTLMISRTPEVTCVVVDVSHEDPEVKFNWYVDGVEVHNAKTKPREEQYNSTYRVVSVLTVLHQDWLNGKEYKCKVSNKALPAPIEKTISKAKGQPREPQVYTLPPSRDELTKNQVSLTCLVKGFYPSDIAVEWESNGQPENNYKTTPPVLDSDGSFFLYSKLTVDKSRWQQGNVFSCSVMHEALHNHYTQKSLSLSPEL
Chain of TrkB (Q16620 32-822): as the sequence (Q16620 32-822) above

In general, Emax refers to the maximal effect, on the per cent scale that the assay sets. In general, Kd refers to the equilibrium constant for the complex coming apart. Regarding `CC(C)[C@@H]1NC(=O)[C@H](Cc2cccnc2)NC(=O)[C@H](CCC(=O)O)NC(=O)[C@H](CO)NC(=O)[C@H](Cc2ccc(O)cc2)NC(=O)[C@H]([C@@H](C)O)NC(=O)[C@@H]2CCCN2C(=O)[C@H](Cc2c[nH]c3ccccc23)NC(=O)[C@H](Cc2cccnc2)NC(=O)[C@H](Cc2ccc(O)cc2)NC(=O)[C@@H]2CCCN2C(=O)[C@H](CO)NC(=O)[C@H](Cc2ccccc2)NC(=O)CSC[C@@H](C(=O)NCC(=O)N[C@@H](CCCCNC(=O)CCOCCOCCOCCOCCOCCOCCOCCOCCOCCOCCOCCOCCOCCC(=O)NCCCC[C@H](NC(=O)CNC(=O)[C@@H]2CSCC(=O)N[C@@H](Cc3ccccc3)C(=O)N[C@@H](CO)C(=O)N3CCC[C@H]3C(=O)N[C@@H](Cc3ccc(O)cc3)C(=O)N[C@@H](Cc3cccnc3)C(=O)N[C@@H](Cc3c[nH]c4ccccc34)C(=O)N3CCC[C@H]3C(=O)N[C@@H]([C@@H](C)O)C(=O)N[C@@H](Cc3ccc(O)cc3)C(=O)N[C@@H](CO)C(=O)N[C@@H](CCC(=O)O)C(=O)N[C@@H](Cc3cccnc3)C(=O)N[C@@H](C(C)C)C(=O)N[C@@H](CCC(=O)O)C(=O)N2)C(N)=O)C(N)=O)NC(=O)[C@H](CCC(=O)O)NC1=O` [compound 48] (I: {CH2CO}-FSPY[3Pal]WPTYSE[3Pal]VECGK-NH2 / II: {CH2CO}-FSPY[3Pal]WPTYSE[3Pal]VECGK-NH2; linker I:17-II:17 via CO(CH2CH2O)13CH2CH2CO; thioether I:N-I:15, II:N-II:15), the “NFAT Assay Results” value in test [1] is reported as “A (The peptide with 50% or more activity when 1 nM of the peptide was added was evaluated as A)”. In addition, at TrkB, the Emax was 102%. Moreover, the “binding to TrkA” value in test [2] is “no binding”. Moreover, in test [3], the “koff (dissociation rate constant) of binding to TrkB” value is on record as “exceeded the measurement limit” and the Kd was not above 0.1 nM. The “binding to TrkC” value in test [4] is reported as “no binding”.

Consider `CC(C)[C@@H]1NC(=O)[C@H](Cc2cccnc2)NC(=O)[C@H](CCC(=O)O)NC(=O)[C@H](CO)NC(=O)[C@H](Cc2ccc(O)cc2)NC(=O)[C@H]([C@@H](C)O)NC(=O)[C@@H]2CCCN2C(=O)[C@H](Cc2c[nH]c3ccccc23)NC(=O)[C@H](Cc2cccnc2)NC(=O)[C@H](Cc2ccc(O)cc2)NC(=O)[C@@H]2CCCN2C(=O)[C@H](CCC(=O)O)NC(=O)[C@H](Cc2ccccc2)NC(=O)CSC[C@@H](C(=O)NCC(=O)N[C@@H](CCCCNC(=O)CCOCCOCCOCCOCCOCCOCCOCCOCCOCCOCCOCCOCCOCCC(=O)NCCCC[C@H](NC(=O)CNC(=O)[C@@H]2CSCC(=O)N[C@@H](Cc3ccccc3)C(=O)N[C@@H](CCC(=O)O)C(=O)N3CCC[C@H]3C(=O)N[C@@H](Cc3ccc(O)cc3)C(=O)N[C@@H](Cc3cccnc3)C(=O)N[C@@H](Cc3c[nH]c4ccccc34)C(=O)N3CCC[C@H]3C(=O)N[C@@H]([C@@H](C)O)C(=O)N[C@@H](Cc3ccc(O)cc3)C(=O)N[C@@H](CO)C(=O)N[C@@H](CCC(=O)O)C(=O)N[C@@H](Cc3cccnc3)C(=O)N[C@@H](C(C)C)C(=O)N[C@@H](CCC(=O)O)C(=O)N2)C(N)=O)C(N)=O)NC(=O)[C@H](CCC(=O)O)NC1=O` [compound 56] (I: {CH2CO}-FEPY[3Pal]WPTYSE[3Pal]VECGK-NH2 / II: {CH2CO}-FEPY[3Pal]WPTYSE[3Pal]VECGK-NH2; linker I:17-II:17 via CO(CH2CH2O)13CH2CH2CO; thioether I:N-I:15, II:N-II:15), for which the “NFAT Assay Results” value in test [1] was “A (The peptide with 50% or more activity when 1 nM of the peptide was added was evaluated as A)”. Besides, the Emax on TrkB was determined as 93%. Besides, the “binding to TrkA” value in test [2] is recorded as “no binding”. For the same compound, in test [3], the “koff (dissociation rate constant) of binding to TrkB” value is “exceeded the measurement limit” and the Kd was not above 0.1 nM. The “binding to TrkC” value in test [4] is recorded as “no binding”.
